Source: paper PMC2655680 (Nucleic Acids Research, 2009)
Values joined by “and” are separate entries in the source; they are usually repeats but may differ in a detail not shown here. Identical values can stand only once.

Biological target: PNK–FHA (FHA domain of human PNK, amino acids 1–109) (Homo sapiens, UniProt Q96T60)
Type: binding
Settings: ITC, peptide injected into PNK–FHA, 10°C, pH 7.5; floating variable of the fit

N (stoichiometry, estimated molar ratio peptide:PNK–FHA): 0.46 and 0.50 and 0.56 and 0.88 and 0.51
Sequence: YAGSTDENTDSE
